Results on 19 compounds are retold here after patent US9181222B2, “Protein kinase C inhibitors and uses thereof” (Rigel Pharmaceuticals, Inc., priority 2010, dated 2015).

In the assay the test system is Human primary T cells. Description: IL-2 ELISA, Human Primary T Cell, Anti-CD3+CD28+ (Whole Cell Assay). The following applies: IL-2 by ELISA, human primary T cells pre-incubated with compound 1 hr, stimulated with αCD3 and αCD28, 24 hours. The format is cell-based. On the procedure:
IL-2 ELISA, Human Primary T Cell, Anti-CD3+CD28+ (Whole Cell Assay)
Human primary T cell isolation and culture: Human primary T cells were prepared as follows. Whole blood was obtained from a healthy volunteer, mixed 1:1 with PBS, layered on to Ficoll Hypaque (Amersham Pharmacia Biotech, Piscataway, N.J., Catalog #17-1440-03) in 2:1 blood/PBS:ficoll ratio and centrifuged for 30 min at 4° C. at 1750 rpm. The cells at the serum: ficoll interface were recovered and washed twice with 5 volumes of PBS. These freshly isolated human peripheral blood mononuclear cells were cultured in Yssel's medium containing 40 U/mL IL2 in a flask pre-coated with 1 μg/mL αCD3 and 5 μg/mL αCD28 (Anti-Human CD3, BD Pharmingen Catalog #555336, Anti-Human CD28, Beckman Coulter Catalog #1M1376). The cells were stimulated for 3-4 days, then transferred to a fresh flask and maintained in RPMI (RPMI-1640 with L-Glutamine; Mediatech, Inc., Herndon Va., cat. #10-040-CM) with 10% FBS and 40 U/mL IL-2. The primary T-cells were then washed twice with PBS to remove the IL-2.
Primary T cell stimulation and IL2 ELISA: Human primary T cells (100,000 cells per well) were pre-incubated with or without test compound in Yssel's medium for 1 hr at 37° C. Cells were then stimulated by transferring them to round-bottom 96-well plates pre-coated with 1 μg/ml αCD3 and 5 μg/ml αCD28. For counter assay, cells were instead stimulated by adding 8× stock solutions of PMA and ionomycin in Yssels (for final concentrations of 0.5 ng/ml PMA and 0.1 μM ionomycin, both from Calbiochem). Cells were incubated at 37° C. for 24 hours before 100 μL supernatants were harvested for quantification of IL-2 by ELISA using Human IL-2 Duoset ELISA Kit from R and D Systems, Cat. # DY202E.
(In general: ELISA stands for enzyme-linked immunosorbent assay.)
A word on the IC50: it is the concentration at which inhibition is half-maximal. As for `CC1(C)CC(Nc2nc(Nc3cc(-n4cnnn4)c(C4CC4)cc3F)ncc2C#N)CC(C)(C)N1` [Compound I-2, 2-(4-Cyclopropyl-2-fluoro-5-tetrazol-1-yl-phenylamino)-4-(2,2,6,6-tetramethyl-piperidin-4-ylamino)-pyrimidine-5-carbonitrile], the IC50 is less than 250 nM.

Take `CC1(C)CC(Nc2nc(Nc3cc(-n4cnnn4)c(C4CC4)cc3F)ncc2C(N)=O)CC(C)(C)N1` [Compound I-3, 2-(4-Cyclopropyl-2-fluoro-5-tetrazol-1-yl-phenylamino)-4-(2,2,6,6-tetramethyl-piperidin-4-ylamino)-pyrimidine-5-carboxylic acid amide]: the IC50 lay in the range of 500 to 1000 nM.

Take `CC1(C)CC(Nc2nc(Nc3cc(F)c(C4CC4)c(-n4cnnn4)c3)ncc2C#N)CC(C)(C)N1` [Compound I-4, 2-(4-Cyclopropyl-3-fluoro-5-tetrazol-1-yl-phenylamino)-4-(2,2,6,6-tetramethyl-piperidin-4-ylamino)-pyrimidine-5-carbonitrile]: the IC50 was less than 250 nM.

Take `CC1(C)CC(Nc2nc(Nc3cc(F)c(C4CC4)c(-n4cnnn4)c3)ncc2F)CC(C)(C)N1` [Compound I-5, N2-(4-Cyclopropyl-3-fluoro-5-tetrazol-1-yl-phenyl)-5-fluoro-N4-(2,2,6,6-tetramethyl-piperidin-4-yl)-pyrimidine-2,4-diamine]: the IC50 is less than 250 nM.

For `CC1(C)CC(Nc2nc(Nc3cc(C4CC4)c(F)c(-n4cnnn4)c3)ncc2C#N)CC(C)(C)N1` [Compound I-6, 2-(3-Cyclopropyl-4-fluoro-5-tetrazol-1-yl-phenylamino)-4-(2,2,6,6-tetramethyl-piperidin-4-ylamino)-pyrimidine-5-carbonitrile], the concentration for half-maximal inhibition (IC50) was less than 250 nM.

`CC1(C)CC(Nc2nc(Nc3cc(C4CC4)c(F)c(-n4cnnn4)c3)ncc2F)CC(C)(C)N1` [Compound I-7, N2-(3-Cyclopropyl-4-fluoro-5-tetrazol-1-yl-phenyl)-5-fluoro-N4-(2,2,6,6-tetramethyl-piperidin-4-yl)-pyrimidine-2,4-diamine]: the 50% inhibitory concentration (IC50) was less than 250 nM.

On to `CC(C)c1cc(F)c(Nc2ncc(C#N)c(NC3CC(C)(C)NC(C)(C)C3)n2)cc1-n1cnnn1` [Compound I-8, 2-(2-Fluoro-4-isopropyl-5-tetrazol-1-yl-phenylamino)-4-(2,2,6,6-tetramethyl-piperidin-4-ylamino)-pyrimidine-5-carbonitrile], for which the IC50 is less than 250 nM.

`CC(C)c1ccc(Nc2ncc(F)c(NC3CC(C)(C)NC(C)(C)C3)n2)cc1-n1cnnn1` [Compound I-9, 5-Fluoro-N2-(4-isopropyl-3-tetrazol-1-yl-phenyl)-N4-(2,2,6,6-tetramethyl-piperidin-4-yl)-pyrimidine-2,4-diamine]: the half-maximal inhibitory concentration (IC50) is less than 250 nM.

Consider `CC(C)c1ccc(Nc2ncc(C(N)=O)c(NC3CC(C)(C)NC(C)(C)C3)n2)cc1-n1cnnn1` [Compound I-10, 2-(4-Isopropyl-3-tetrazol-1-yl-phenylamino)-4-(2,2,6,6-tetramethyl-piperidin-4-ylamino)-pyrimidine-5-carboxylic acid amide], for which the IC50 is 250 to 500 nM.

Consider `CC(C)c1ccc(Nc2ncc(C#N)c(NC3CC(C)(C)NC(C)(C)C3)n2)cc1-n1cnnn1` [Compound I-11, 2-(4-Isopropyl-3-tetrazol-1-yl-phenylamino)-4-(2,2,6,6-tetramethyl-piperidin-4-ylamino)-pyrimidine-5-carbonitrile], for which the IC50 is less than 250 nM.

Turning to `CC1(C)CC(Nc2nc(Nc3cc(-n4cnnn4)c(C4CC4)cc3F)ncc2F)CC(C)(C)N1` [Compound I-12, N2-(4-Cyclopropyl-2-fluoro-5-tetrazol-1-yl-phenyl)-5-fluoro-N4-(2,2,6,6-tetramethyl-piperidin-4-yl)-pyrimidine-2,4-diamine], the IC50 is less than 250 nM.

Take `CC1(C)CC(Nc2nc(Nc3cc(-n4cnnn4)ccc3F)ncc2F)CC(C)(C)N1` [Compound I-13, 5-Fluoro-N2-(2-fluoro-5-tetrazol-1-yl-phenyl)-N4-(2,2,6,6-tetramethyl-piperidin-4-yl)-pyrimidine-2,4-diamine]: the IC50 is less than 250 nM.

With `CN1C(C)(C)CC(Nc2nc(Nc3cc(-n4cnnn4)ccc3F)ncc2F)CC1(C)C` [Compound I-14, 5-Fluoro-N2-(2-fluoro-5-tetrazol-1-yl-phenyl)-N4-(1,2,2,6,6-pentamethyl-piperidin-4-yl)-pyrimidine-2,4-diamine], the IC50 is less than 250 nM.

Turning to `CC1(C)CC(Nc2nc(Nc3ccc(C4CC4)c(-n4nnnc4C(F)(F)F)c3)ncc2F)CC(C)(C)N1` [Compound I-15, N2-[4-Cyclopropyl-3-(5-trifluoromethyl-tetrazol-1-yl)-phenyl]-5-fluoro-N4-(2,2,6,6-tetramethyl-piperidin-4-yl)-pyrimidine-2,4-diamine], the IC50 was less than 250 nM.

Regarding `CC(C)c1nnnn1-c1cc(Nc2ncc(F)c(NC3CC(C)(C)NC(C)(C)C3)n2)c(F)cc1C1CC1` [Compound I-16, N2-(4-cyclopropyl-2-fluoro-5-(5-isopropyl-1H-tetrazol-1-yl)phenyl)-5-fluoro-N4-(2,2,6,6-tetramethylpiperidin-4-yl)pyrimidine-2,4-diamine], the 50% inhibitory concentration (IC50) is less than 250 nM.

Regarding `CC1(C)CC(Nc2nc(Nc3cc(-n4nnnc4C4CC4)c(C4CC4)cc3F)ncc2F)CC(C)(C)N1` [Compound I-17, N2-(4-cyclopropyl-5-(5-cyclopropyl-1H-tetrazol-1-yl)-2-fluorophenyl)-5-fluoro-N4-(2,2,6,6-tetramethylpiperidin-4-yl)pyrimidine-2,4-diamine], the IC50 was less than 250 nM.

Regarding `Cc1nnnn1-c1cc(Nc2ncc(F)c(NC3CC(C)(C)NC(C)(C)C3)n2)c(F)cc1C1CC1` [Compound I-18, N2-(4-cyclopropyl-2-fluoro-5-(5-methyl-1H-tetrazol-1-yl)phenyl)-5-fluoro-N4-(2,2,6,6-tetramethylpiperidin-4-yl)pyrimidine-2,4-diamine], the half-inhibitory concentration (IC50) was less than 250 nM.

With `CC1(C)CC(Nc2nc(Nc3cc(-n4nnnc4C(F)(F)F)c(C4CC4)cc3F)ncc2F)CC(C)(C)N1` [Compound I-19, N2-(4-cyclopropyl-2-fluoro-5-(5-(trifluoromethyl)-1H-tetrazol-1-yl)phenyl)-5-fluoro-N4-(2,2,6,6-tetramethylpiperidin-4-yl)pyrimidine-2,4-diamine], the half-inhibitory concentration (IC50) was less than 250 nM.

`CC1(C)CC(Nc2nc(Nc3cc(-n4nnnc4CF)c(C4CC4)cc3F)ncc2F)CC(C)(C)N1` [Compound I-20, N2-(4-cyclopropyl-2-fluoro-5-(5-(fluoromethyl)-1H-tetrazol-1-yl)phenyl)-5-fluoro-N4-(2,2,6,6-tetramethylpiperidin-4-yl)pyrimidine-2,4-diamine]: the IC50 was less than 250 nM.
